pIC50: −log10 of the molar value. Structures can show the parent of a compound that is named as a salt.
Legend:
nerve-injured mice = settings: pretreatment; cited from earlier work
human LPA1 = target: T1, human LPA1 (Homo sapiens, UniProt Q92633); test: LPA1 functional antagonist assay (calcium flux); format: cell-based; settings: CHO cells overexpressing human LPA1; inhibition of calcium flux induced by 10 nM LPA; read-out: hLPA1 IC50
T1 construct: expressed in transfected cells; host or cells: Chinese hamster ovary (CHO) cells
Description: The effectiveness of compounds of the present invention as LPA1 inhibitors can be determined in an LPA1 functional antagonist assay as follows: • Chinese hamster ovary cells overexpressing human LPA1 were plated overnight (15,000 cells/well) in poly-D-lysine coated 384-well microplates (Greiner bio-one, Cat #781946) in DMEM/F12 medium (Gibco, Cat #11039). Following overnight culture, cells were loaded with calcium indicator dye (AAT Bioquest Inc, Cat #34601) for 30 minutes at 37° C. The cells were then equilibrated to room temperature for 30 minutes before the assay. Test compounds solubilized in DMSO were transferred to 384 well non-binding surface plates (Corning, Cat #3575) using the Labcyte Echo acoustic dispense and diluted with assay buffer [[…] with calcium/magnesium (Gibco Cat #14025-092), 20 mM HEPES (Gibco Cat #15630-080) and 0.1% fatty acid free BSA (Sigma Cat #A9205)] to a final concentration of 0.5% DMSO. Diluted compounds were added to the cells by FDSS6000 (Hamamatsu) at final concentrations ranging from 0.08 nM to 5 μM. and were then incubated for 20 min at room temperature at which time LPA (Avanti Polar Lipids Cat #857130C) was added at final concentrations of 10 nM to stimulate the cells. The compound IC50 value was defined as the concentration of test compound which inhibited 50% of the calcium flux induced by LPA alone. IC50 values were determined by fitting data to a 4-parameter logistic equation (GraphPad Prism, San Diego CA). b. In Vivo Assays LPA Challenge with Plasma Histamine Evaluation.

IPF patients = settings: 26-week clinical trial in IPF patients; cited from earlier work
[1] = test system: human foetal lung fibroblasts; settings: cited from earlier work
UUO mice = UUO mice treated with antagonist, compared with LPA1 (-/-) mice; cited from earlier work
[2] = test system: pancreatic cancer cell lines; settings: cited from earlier work
[3] = test system: mouse epithelial renal cell line, MCT; settings: co-treatment with LPA, MCT cells; cited from earlier work

T1 sequence (Q92633 whole entry): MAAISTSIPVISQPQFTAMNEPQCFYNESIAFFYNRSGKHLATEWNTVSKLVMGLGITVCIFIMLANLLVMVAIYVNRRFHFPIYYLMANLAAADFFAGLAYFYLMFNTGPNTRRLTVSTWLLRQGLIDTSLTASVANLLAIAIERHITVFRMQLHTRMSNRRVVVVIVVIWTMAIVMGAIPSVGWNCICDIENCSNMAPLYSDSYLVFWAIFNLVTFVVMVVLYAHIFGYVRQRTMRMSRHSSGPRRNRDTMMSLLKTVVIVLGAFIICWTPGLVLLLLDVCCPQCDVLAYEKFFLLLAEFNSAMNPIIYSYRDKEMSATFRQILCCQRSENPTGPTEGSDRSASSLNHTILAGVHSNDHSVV

| SMILES | pIC50 (human LPA1) | further results |
| --- | --- | --- |
| C[C@@H](N)[C@H]1CC[C@H](C(=O)Nc2ccncc2)CC1 [Example Y-27632] | – | allodynia and hyperalgesia (nerve-injured mice): completely abolished |
| CCCCN(C)C(=O)OCc1c(-c2ccc(O[C@H]3C[C@H](C(=O)O)[C@@H]4C[C@@H]43)c(C)n2)nnn1C [Example 14] | 6.84 | – |
| Cc1nc(-c2nnn(C)c2COC(=O)N(C)CC2CCC2)ccc1O[C@H]1CC2C[C@H]2[C@@H](C(=O)O)C1 (single isomer, unassigned) [Example 9] | 6.24 | – |
| Cc1nc(-c2nnn(C)c2COC(=O)N(C)CC2CCC2)ccc1O[C@@H]1C[C@H]2C[C@H]2[C@H](C(=O)O)C1 (racemic) [Example 1, (±)-(1R,2R,4R,6R)-4-((6-(5-((((cyclobutylmethyl)(methyl)carbamoyl)oxy)methyl)-1-methyl-1H-1,2,3-triazol-4-yl)-2-methylpyridin-3-yl)oxy)bicyclo[4.1.0]heptane-2-carboxylic Acid] | 7.57 | – |
| Cc1nc(-c2nnn(C)c2COC(=O)N(C)CC2CCC2)ccc1O[C@@H]1C[C@@H]2C[C@@H]2[C@H](C(=O)O)C1 (single isomer, unassigned) [Example 8] | 7.59 | – |
| Cc1nc(-c2nnn(C)c2COC(=O)N(C)CC2CCC2)ccc1O[C@@H]1CCC[C@@]2(C(=O)O)C[C@@H]12 (single isomer, unassigned) [Example 11] | 6.89 | – |
| Cc1nc(-c2nnn(C)c2COC(=O)N(C)CC2CCC2)ccc1O[C@H]1CC2C[C@H]2[C@H](C(=O)O)C1 (single isomer, unassigned) [Example 5] | 7.55 | – |
| Cc1nc(-c2nnn(C)c2COC(=O)N(C)CC2CCC2)ccc1O[C@H]1C[C@H]2C[C@H]2[C@H](C(=O)O)C1 (racemic) [Example 2, (±)-(1R,2R,4S,6R)-4-((6-(5-((((cyclobutylmethyl)(methyl)carbamoyl)oxy)methyl)-1-methyl-1H-1,2,3-triazol-4-yl)-2-methylpyridin-3-yl)oxy) bicyclo[4.1.0]heptane-2-carboxylic Acid] | 7.59 | – |
| Cc1noc(-c2ccc(-c3ccc(C4(C(=O)O)CC4)cc3)cc2)c1NC(=O)O[C@H](C)c1ccccc1 [BMS-986020] | – | rate of FVC (forced vital capacity) decline (IPF patients): significantly reduce |
| Cc1noc(-c2ccc(CSCCC(=O)O)cc2)c1NC(=O)OC(C)c1ccccc1Cl (stereo not shown) [Ki16425] | – | chemotaxis of human foetal lung fibroblasts induced by BAL from IPF patients [1]: blocked; development of renal fibrosis (UUO mice): closely resembled the profile of LPA1 (−/−) mice; LPA-induced and ascites-induced invasion activity ([2]; highly peritoneal metastatic pancreatic cancer cell line): blocked; in vitro migration in response to LPA and ascites from pancreatic cancer patients ([2]; pancreatic cancer cell lines): effectively blocked; LPA-induced expression of CTGF [3]: almost completely suppressed |
| Cc1nc(-c2nnn(C)c2COC(=O)N(C)CC2CCC2)ccc1O[C@@H]1C[C@@H]2C[C@@H]2[C@@H](C(=O)O)C1 (single isomer, unassigned) [Example 6] | 6.25 | – |
| CCCN(C)C(=O)OCc1c(-c2ccc(O[C@H]3C[C@H](C(=O)O)[C@@H]4C[C@@H]43)c(C)n2)nnn1C [Example 13] | 6.10 | – |

The next lines start with results.

| pIC50 (human LPA1) | SMILES | further results |
| --- | --- | --- |
| 7.09 | CN(CC1CCC1)C(=O)OCc1c(-c2ccc(O[C@@H]3CC[C@H]4C(C(=O)O)[C@@H]34)cn2)nnn1C (stereo partly shown) [Example 70] | – |
| 6.21 | Cc1nc(-c2nnn(C)c2COC(=O)N(C)CC2CCC2)ccc1O[C@@H]1CC[C@H]2C(C(=O)O)[C@@H]12 (single isomer, unassigned) [Example 42] | – |
| 6.76 | CCCCN(C)C(=O)OCc1c(-c2ccc(O[C@@H]3COC[C@@H](C(=O)O)C3)c(C)n2)nnn1C [Example 18] | – |
| 6.38 | Cc1nc(-c2nnn(C)c2Cn2nnc(CC3CCCC3)n2)ccc1O[C@@H]1COC[C@@H](C(=O)O)C1 (racemic) [Example 24, (±)-trans-5-((6-(5-((5-(cyclopentylmethyl)-2H-tetrazol-2-yl)methyl)-1-methyl-1H-1,2,3-triazol-4-yl)-2-methylpyridin-3-yl)oxy)tetrahydro-2H-pyran-3-Carboxylic Acid, TFA Salt] | – |
| 6.58 | Cc1nc(-c2nnn(C)c2COC(=O)N(C)CC2CCC2)ccc1OC1CC2C(C1)C2C(=O)O (stereo not shown) [Example 67] | – |
| 7.72 | Cc1nc(-c2nnn(C)c2COC(=O)N(C)CC2CCC2)ccc1OC1CC[C@H]2C(C(=O)O)[C@@H]12 (mixture of isomers) [Example 41, (±)-(1S,2R,5R)-2-((6-(5-((((cyclobutylmethyl)(methyl)carbamoyl)oxy)methyl)-1-methyl-1H-1,2,3-triazol-4-yl)-2-methylpyridin-3-yl)oxy)bicyclo[3.1.0]hexane-6-carboxylic Acid] | – |
| 6.50 | Cc1nc(-c2nnn(C)c2COC(=O)N(C)CC(C)C)ccc1O[C@@H]1CC[C@H]2C(C(=O)O)[C@@H]12 (stereo partly shown) [Example 60] | – |
| 7.10 | CN(C(=O)OCc1c(-c2ccc(O[C@@H]3C[C@H](C(=O)O)C[C@@H]4C[C@@H]43)cn2)nnn1C)C1CCCC1 (racemic) [Example 72, (±)-(1 S,3R,5R,6S)-5-((6-(5-(((Cyclopentyl(methyl)carbamoyl)oxy)methyl)-1-methyl-1H-1,2,3-triazol-4-yl)pyridin-3-yl)oxy)bicyclo[4.1.0]heptane-3-carboxylic Acid] | – |
| 7.19 | Cc1nc(-c2nnn(C)c2COC(=O)N(C)CC2CCC2)ccc1O[C@@H]1CC[C@H]2C(C(=O)O)[C@@H]12 (single isomer, unassigned) [Example 44, TFA Salt] | – |
| 5.98 | Cc1nc(-c2nnn(C)c2CNc2noc(CC3CC3)n2)ccc1O[C@H]1C[C@H](C(=O)O)[C@@H]2C[C@@H]21 [Example 15] | – |
| 8.84 | Cc1nc(-c2nnn(C)c2NC(=O)OCC2CC2)ccc1O[C@H]1C[C@H](C(=O)O)[C@@H]2C[C@@H]21 [Example 16] | – |
| 6.90 | Cc1nc(-c2nnn(C)c2NC(=O)OCc2ccccc2)ccc1O[C@@H]1CC[C@H]2C(C(=O)O)[C@@H]12 (stereo partly shown) [Example 64] | – |
| 6.65 | Cc1nc(-c2nnn(C)c2COC(=O)N(C)CCC(C)C)ccc1O[C@@H]1COC[C@@H](C(=O)O)C1 [Example 20] | – |
| 6.84 | Cc1nc(-c2nnn(C)c2COC(=O)N(C)C2CCCC2)ccc1O[C@@H]1CC[C@H]2C(C(=O)O)[C@@H]12 (stereo partly shown) [Example 62] | – |
| 6.19 | CCCCN(C)C(=O)OCc1c(-c2ccc(O[C@H]3CCO[C@@H](C(=O)O)C3)c(C)n2)nnn1C [Example 35] | – |
